In patent publication US10611748B2, “Xanthone derivatives for the treatment of hepatitis B virus disease” (Hoffmann-La Roche Inc., priority 2017, dated 2020):

Tested on: cccDNA level in HepDES19 cells
Assay: cccDNA Southern Blot assay
Assay type: cell-based, HBV
Conditions: 5 days' compound treatment, Hirt DNA, serial dilutions
Procedure: HepDES19 cells were seeded at 4×10^6 cells per T150 in the culture medium (Dulbecco's Modified Eagle Medium: Nutrient Mixture F-12 (DMEM:F12, Gibco Cat. 11320-82), 10% Fetal Bovine Serum (FBS, Clontech Cat. 631101), 0.1 mM Non-Essential Amino Acids Solution (NEAA, Gibco Cat. 11140-050), […] Penicillin-Streptomycin (PS, Invitrogen Cat. 15140-163), 500 μg/mL Geneticin (G418, Invitrogen Cat. 10131-027) in the absence of Tet for 8 days. These cells were seeded at the density of 1×10^6 cells per well in 6-well plate. At 24 hrs after seeding, serial dilutions of compounds made with DMSO (Sigma, Cat. D2650) were further diluted with the same culture medium as described above before they were added to the cells to reach desired final compound concentrations and 1% DMSO concentration. After 5 days' compound treatment, the cells growing in one well from 6-well plate were re-suspended with 500 μL re-suspension buffer (50 mM tris[hydroxymethyl]aminomethane pH 7.5), 10 mM ethylenediaminetetraacetic acid (EDTA), 50 μg/mL RNase A (Qiagen, Cat. 158922). 500 μL of 1.2% sodium dodecyl sulfate (SDS) was then added into the re-suspended cells to lyse the cells. After 15 minutes' incubation, 700 μL precipitation buffer (3M cesium chloride, 1M potassium acetate, 0.67M acetic acid) was added and the lysate was incubated at 4° C. for 2 h. The lysate was centrifuged at 15000 revolutions per minute (RPM) at 4° C. for 15 minutes. The supernatant was collected and loaded onto Qiagen miniprep columns (QIAprep spin Mini prep kit, Cat. No. 27016). After centrifugation for 1 minute at 15000 RPM, the column was washed once with 750 µL wash buffer PE from QIAprep spin Mini prep kit. 80 μL of double distilled water was loaded to the columns to elute Hirt DNA.
Hirt DNA of each sample was loaded into 1.2% lx tris-acetate electrophoresis (TAE) agarose gel and separated at 90 voltages for 3 hours. The gel was then treated in 50 mM NaAc—HAc, pH4.2 for 30 min at room temperature (RT), and then denatured by soaking in denaturation buffer (0.5 M sodium hydroxide, 1.5 M sodium chloride) at RT for 30-45 min. The gel was then treated with neutralization buffer (1M tris[hydroxymethyl]aminomethane pH7.4 and 1.5M NaCl) at RT for 30 to 45 min.
The gel was transferred onto a pre-wet Nylon membrane (GE life science, Hybond N+) by capillary transfer method overnight, followed by UV crosslinking. The membrane was transferred into a hybridization tube, then rinsed with double distilled water at 60° C. for 5 mins. 10 mL of hybridization buffer (Lab kits, China) was added, the resulting sample was rotated in hybridization oven at 60° C. for 1 hour. Digoxigenin (DIG)-labelled HBV probe (SEQ ID NO: 1) was denatured at 95° C. for 10 minutes, and then 7 μL of denatured probe was added to the hybridization tube, which was rotated in hybridization oven at 60° C. overnight.
On the second day, the membrane was washed according to the procedure of DIG wash and block buffer set kit (Roche, Cat. 11 585 762 001), and then incubated with 50 mL antibody solution (Antibody anti-Digoxigenin-AP Fab fragment (Roche Cat. 11093274910) diluted in fresh 1× blocking buffer at 1:10,000) for 1 hour. The membrane was washed with 50 mL washing buffer (1× Maleic buffer with 0.3% Tween-20) for 15 minutes twice, and equilibrated with 20 mL detection buffer (0.1M tris[hydroxymethyl]aminomethane pH9.5, 0.1M sodium chloride) for 5 minutes. CDP-Star substrate (Roche, Cat. 12041677001) was added to the membrane for 5 minutes, and then the membrane was scanned by Bio-Rad Visualize Image System (Biorad, ChemiDoc-MP, Serial No. 731BR00916).

Row | Structure (SMILES) | cccDNA level in HepDES19 cells (Southern Blot)
1 | O=C(O)C1CCN(c2ccc3c(=O)c4cccc(Cl)c4oc3c2)C1 (centres unmarked) [Example 2, 1-(5-chloro-9-oxo-xanthen-3-yl)pyrrolidine-3-carboxylic acid] | dose-dependently reduced cccDNA level
2 | O=C(O)[C@@H]1CCN(c2ccc3c(=O)c4cccc(Cl)c4oc3c2)C1 [Example 3, (3R)-1-(5-chloro-9-oxo-xanthen-3-yl)pyrrolidine-3-carboxylic acid] | dose-dependently reduced cccDNA level
3 | O=C(O)[C@H]1CCN(c2ccc3c(=O)c4cccc(Cl)c4oc3c2)C1 [Example 4, (3S)-1-(5-chloro-9-oxo-xanthen-3-yl)pyrrolidine-3-carboxylic acid] | dose-dependently reduced cccDNA level
4 | O=C(O)C1CCN(c2ccc3c(=O)c4cccc(F)c4oc3c2)C1 (centres unmarked) [Example 5, 1-(5-fluoro-9-oxo-xanthen-3-yl)pyrrolidine-3-carboxylic acid] | dose-dependently reduced cccDNA level
5 | O=C(O)C1CCN(c2ccc3c(=O)c4c(Cl)ccc(Cl)c4oc3c2)C1 (centres unmarked) [Example 26, 1-(5,8-dichloro-9-oxo-xanthen-3-yl)pyrrolidine-3-carboxylic Acid] | dose-dependently reduced cccDNA level
